Experimental data: ChEMBL document CHEMBL1140505, “D-phenylglycinol-derived non-covalent factor Xa inhibitors: effect of non-peptidic S4 linkage elements on affinity and anticoagulant activity” (2007)
Values belong to the compound of their own block, whether it stands above or below them.

Assays:
[1] = biological target: Coagulation factor X (Homo sapiens) (UniProt P00742); assay: Binding affinity to F10a
Plasma [2] = assay: Anticoagulant activity in monkey plasma assessed as concentration causing 1.5 times prolongation of prothrombin time; assay type: functional, Macaca mulatta
Plasma [3] = assay: Anticoagulant activity in human plasma assessed as concentration causing 1.5 times prolongation of prothrombin time; assay type: functional
Plasma [4] = assay: Anticoagulant activity in dog plasma assessed as concentration causing 1.5 times prolongation of prothrombin time; assay type: functional, Canis lupus familiaris
Plasma [5] = assay: Anticoagulant activity in rat plasma assessed as concentration causing 1.5 times prolongation of prothrombin time; assay type: functional

Chain of Coagulation factor X (Homo sapiens) (P00742 41-179 limits assumed): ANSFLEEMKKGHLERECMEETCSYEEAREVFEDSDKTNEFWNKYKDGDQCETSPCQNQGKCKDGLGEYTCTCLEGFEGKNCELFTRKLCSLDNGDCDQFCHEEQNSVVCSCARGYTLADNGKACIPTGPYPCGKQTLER
Chain of Coagulation factor X (Homo sapiens) (P00742 235-488 limits assumed): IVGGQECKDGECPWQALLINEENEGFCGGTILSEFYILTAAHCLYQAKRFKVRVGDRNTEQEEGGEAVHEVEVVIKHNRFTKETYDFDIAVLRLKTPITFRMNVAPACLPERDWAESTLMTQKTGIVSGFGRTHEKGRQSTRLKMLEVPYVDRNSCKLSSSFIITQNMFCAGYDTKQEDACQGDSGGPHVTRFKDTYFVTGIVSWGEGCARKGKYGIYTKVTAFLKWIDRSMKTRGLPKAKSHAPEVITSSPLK

Structure (SMILES): CC(C)N1CCC(COCC(NC(=O)c2ccc3c(Cl)c[nH]c3c2)c2ccccc2Cl)CC1 (stereo not drawn)
Kapp [1]: 850 10^6L/mol

Structure (SMILES): CC(C)N1CCC(COC[C@H](NC(=O)c2ccc3c(Cl)c[nH]c3c2)c2ccccc2)CC1
Kapp [1]: 1700 10^6L/mol
Activity (Plasma [2]): 0.4 µM
Activity (Plasma [3]): 0.4 µM
Activity (Plasma [4]): 0.8 µM
Activity (Plasma [5]): 0.6 µM

Structure (SMILES): CC(C)N1CCC(CN(C)C[C@H](NC(=O)c2ccc3c(Cl)c[nH]c3c2)c2ccccc2)CC1
Kapp [1]: 60 10^6L/mol

Structure (SMILES): CC(C)N1CCC(CNC(=O)[C@H](NC(=O)c2ccc3c(Cl)c[nH]c3c2)c2ccccc2)CC1
Kapp [1]: 460 10^6L/mol
Activity (Plasma [2]): 0.6 µM
Activity (Plasma [3]): 0.5 µM
Activity (Plasma [4]): 3.2 µM
Activity (Plasma [5]): 2.6 µM

Structure (SMILES): O=C(NC(COCC1CCN(c2ccncc2)CC1)c1ccccc1Cl)c1ccc2c(Cl)c[nH]c2c1 (stereo not drawn)
Kapp [1]: 1300 10^6L/mol

Structure (SMILES): CC(C)[C@H](COCC1CCN(C(C)C)CC1)NC(=O)c1ccc2c(Cl)c[nH]c2c1
Kapp [1]: 14 10^6L/mol

Structure (SMILES): CCN1CCC(COCC(NC(=O)c2ccc3c(Cl)c[nH]c3c2)c2ccccc2Cl)CC1 (stereo not drawn)
Kapp [1]: 150 10^6L/mol

Structure (SMILES): CC(C)N1CCC(CNC[C@H](NC(=O)c2ccc3c(Cl)c[nH]c3c2)c2ccccc2)CC1
Kapp [1]: 1200 10^6L/mol

Structure (SMILES): CC(C)N1CCC(COC[C@H](NC(=O)c2ccc3cc[nH]c3c2)c2ccccc2)CC1
Kapp [1]: 35 10^6L/mol

Structure (SMILES): CN1CCC(COCC(NC(=O)c2ccc3c(Cl)c[nH]c3c2)c2ccccc2Cl)CC1 (stereo not drawn)
Kapp [1]: 65 10^6L/mol

Results, then the compound that gave them:

Kapp [1]: 160 10^6L/mol
Structure (SMILES): Cc1c[nH]c2cc(C(=O)N[C@@H](COCC3CCN(C(C)C)CC3)c3ccccc3)ccc12

Kapp [1]: 650 10^6L/mol
Structure (SMILES): CC(C)N1CCC(COCC(NC(=O)c2ccc3c(Cl)c[nH]c3c2)c2ccccc2F)CC1 (stereo not drawn)

Kapp [1]: 41 10^6L/mol
Structure (SMILES): CCCC[C@H](COCC1CCN(C(C)C)CC1)NC(=O)c1ccc2c(Cl)c[nH]c2c1

Kapp [1]: 700 10^6L/mol
Structure (SMILES): CC(C)N1CCC(CCCC(NC(=O)c2ccc3c(Cl)c[nH]c3c2)c2ccccc2)CC1 (stereo not drawn)

Kapp [1]: 3 10^6L/mol
Structure (SMILES): COc1ccc(C(=O)N[C@@H](COCC2CCN(C(C)C)CC2)c2ccccc2)cc1
